Assay results reported in patent US20250145633A1, “SUBSTITUTED FURANOPYRIMIDINE COMPOUNDS AS PDE1 INHIBITORS” (Dart NeuroScience, LLC, priority 2017, published 2025).

Each compound was assayed against human PDE1B enzyme (Homo sapiens (Human), UniProt Q01064) (assay: IMAP TR-FRET PDE1B enzymatic assay). Settings: negative log of half-maximal molar inhibitory concentration; 200 nM FAM-cAMP; values given as bins.
Format: biochemical
Outline: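 Full-length GST-tagged human PDE1B (250 pg/well) in IMAP BSA buffer with 10 U/ml calmodulin and 2.5 mM CaCl2; compound pre-incubated 5 min at room temperature, then 200 nM (final) FAM-cAMP for 30 min. IMAP binding reagent/Tb added, 1 h; TR-FRET 520/490 ratio read. IC50 from sigmoidal dose-response fit.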

How did the “PDE1b (pIC50)” value turn out when `COc1nc(C2CC2)nc2c1CCN(C(=O)c1c(C)oc3ncnc(NC4(C)CC4)c13)C2` [Example 812, 5-{2-Cyclopropyl-4-methoxy-5H,6H,7H,8H-pyrido[3,4-d]pyrimidine-7-carbonyl}-6-methyl-N-(1-methylcyclopropyl)furo[2,3-d]pyrimidin-4-amine] was run?
Its value is over 8.

`Cc1oc2ncnc(NC3(C)CC3)c2c1C(=O)N1CCC2(CC1)SCc1ccccc12` [Example 388, 6-Methyl-N-(1-methylcyclopropyl)-5-(f{3H-spiro[2-benzothiophene-1,4′-piperidine]-1′-yl}carbonyl)furo[2,3-d]pyrimidin-4-amine] was tested. Which “PDE1b (pIC50)” value did it give?
The value was over 8.

How did the “PDE1b (pIC50)” value turn out when `Cc1oc2ncnc(NC3(C)CC3)c2c1C(=O)N1CCC(c2ncc(O)cn2)CC1` [Example 355, 2-(1-{6-Methyl-4-[(1-methylcyclopropyl)amino]furo[2,3-d]pyrimidine-5-carbonyl}piperidin-4-yl)pyrimidin-5-ol] was run?
Its value is over 8.

Which “PDE1b (pIC50)” value does the source give for `Cc1oc2ncnc(NC3(C)CC3)c2c1C(=O)NCc1cccc(C#N)c1` [Example 66, N-[(3-Cyanophenyl)methyl]-6-methyl-4-[(1-methylcyclopropyl)amino]furo[2,3-d]pyrimidine-5-carboxamide] here?
The value was over 8.

For `COc1cc(CNC(=O)c2c(C)oc3ncnc(NC4(C)CC4)c23)ncn1` [Example 666, N-[(6-Methoxypyrimidin-4-yl)methyl]-6-methyl-4-[(1-methylcyclopropyl)amino]furo[2,3-d]pyrimidine-5-carboxamide], which “PDE1b (pIC50)” value is on record?
Its value is over 8.

Same assay, conditions: negative log of half-maximal molar inhibitory concentration; 200 nM FAM-cAMP; values given as bins; read-out: PDE1b (pIC50) (converted)

For `Cc1oc2ncnc(NC3(C)CC3)c2c1C(=O)NC1(CF)CC1` [Example 3, N-(1-(fluoromethyl)cyclopropyl)-6-methyl-4-((1-methylcyclopropyl)amino)furo[2,3-d]pyrimidine-5-carboxamide], which IC50 is on record?
The IC50 was 10 to 100 nM.

For `Cc1oc2ncnc(NC3(C)CC3)c2c1C(=O)NCc1cc(-c2cnn(C)c2)on1` [Example 352, 6-Methyl-N-{[5-(1-methyl-1H-pyrazol-4-yl)-1,2-oxazol-3-yl]methyl}-4-[(1-methylcyclopropyl)amino]furo[2,3-d]pyrimidine-5-carboxamide], which IC50 is on record?
Its IC50 is 10 to 100 nM.

For `COc1ccccc1OCCN(C)C(=O)c1c(C)oc2ncnc(NC3(C)CC3)c12` [Example 558, N-[2-(2-Methoxyphenoxy)ethyl]-N,6-dimethyl-4-[(1-methylcyclopropyl)amino]furo[2,3-d]pyrimidine-5-carboxamide], which IC50 is on record?
The IC50 was 10 to 100 nM.

With `Cc1oc2ncnc(NC3(C)CC3)c2c1C(=O)NC1(C)CCC1` [Example 104, 6-Methyl-N-(1-methylcyclobutyl)-4-[(1-methylcyclopropyl)amino]furo[2,3-d]pyrimidine-5-carboxamide] as the compound, how does the IC50 read?
Its IC50 is 10 to 100 nM.

How did the IC50 turn out when `Cc1oc2ncnc(NC3(C)CC3)c2c1C(=O)N1CCC(Cc2ccc(F)cc2)C1` (centres unmarked) [Example 414, 5-{3-[(4-Fluorophenyl)methyl]pyrrolidine-1-carbonyl}-6-methyl-N-(1-methylcyclopropyl)furo[2,3-d]pyrimidin-4-amine] was run?
Its IC50 is 10 to 100 nM.

With `Cc1oc2ncnc(NC3(C)CC3)c2c1C(=O)N1CCc2c(Cl)ncnc2C1` [Example 6, 5-{4-chloro-5H,6H,7H,8H-pyrido[3,4-d]pyrimidine-7-carbonyl}-6-methyl-N-(1-methylcyclopropyl)furo[2,3-d]pyrimidin-4-amine] as the compound, how does the IC50 read?
The IC50 was 10 to 100 nM.

With `Cc1oc2ncnc(NC3(C)CC3)c2c1C(=O)N1CCCN(c2ccccn2)CC1` [Example 158, 6-Methyl-N-(1-methylcyclopropyl)-5-[4-(pyridin-2-yl)-1,4-diazepane-1-carbonyl]furo[2,3-d]pyrimidin-4-amine] as the compound, how does the IC50 read?
The IC50 was 100 to 1000 nM.

How did the IC50 turn out when `Cc1oc2ncnc(NC3(C)CC3)c2c1C(=O)NCc1cc(=O)[nH]cn1` [Example 661, 6-Methyl-4-[(1-methylcyclopropyl)amino]-N-[(6-oxo-1,6-dihydropyrimidin-4-yl)methyl]furo[2,3-d]pyrimidine-5-carboxamide] was run?
Its IC50 is 10 to 100 nM.

`Cc1oc2ncnc(NC3(C)CC3)c2c1C(=O)NCc1ccnc(-n2ccnc2)c1` [Example 674, N-{[2-(1H-Imidazol-1-yl)pyridin-4-yl]methyl}-6-methyl-4-[(1-methylcyclopropyl)amino]furo[2,3-d]pyrimidine-5-carboxamide] was tested. Which IC50 did it give?
Its IC50 is 10 to 100 nM.
